# Columns and labels:
# MRSA-HR = assay: Antimicrobial activity, MIC by agar plate dilution method against MRSA-HR; type: cell-based, methicillin resistant Staphylococcus aureus; settings: Staphylococcus aureus, read-out: minimal inhibitory concentration (MIC) against MRSA-HR
# Description: (§1) The minimal inhibitory concentration (MIC, μg/mL) against MRSAs (MRSA-HR and MRSA-LR) were measured for typical comounds of novel aminoglycoside antibiotic derivatives described in the Examples (Example 1, Example 2, Example 9, Example 13, Example 18, Example 24, Example 44, Example 45, Example 48, Example 49, Example 51, Example 52, Example 53, Example 54, and Example 76) by an agar plate dilution method based on the method based on the JAPANESE SOCIETY OF CHEMOTHERAPY. As a result, the MIC value of the compounds described in the Examples was not more than 8 against MRSA-HR and not more than 4 against MRSA-LR. The same test was carried out for arbekacin described in Japanese Patent Laid-Open No. 164696/1980.
# P. aeruginosa PAO1 = assay: Antimicrobial activity, MIC against P. aeruginosa PAO1; type: cell-based; settings: Pseudomonas aeruginosa, read-out: minimal inhibitory concentration (MIC) against P. aeruginosa PAO1
# MRSA-LR = assay: Antimicrobial activity, MIC by agar plate dilution method against MRSA-LR; type: cell-based, methicillin resistant Staphylococcus aureus; settings: Staphylococcus aureus, read-out: minimal inhibitory concentration (MIC) against MRSA-LR
# Description: as §1
Structure (SMILES),MIC (MRSA-HR) [µg/mL],MIC (P. aeruginosa PAO1) [µg/mL],MIC (MRSA-LR) [µg/mL]
"NCC[C@H](O)C(=O)NC1C[C@H](N)C(O[C@H]2OC(CN)CCC2N)C(F)[C@H]1O[C@H]1OC(CO)[C@H](O)C(N)C1O (stereo partly drawn) [Example 2, 5-Deoxy-4″-epi-5-epifluoroarbekacin]",≤ 8,≤ 4,≤ 4
"NCC1CCC(N)[C@@H](OC2C(O)[C@@H](O[C@H]3OC(CO)[C@H](O)C(N)C3O)C(NC(=O)[C@@H](O)CN)C[C@@H]2N)O1 (stereo partly drawn) [Example 9, 1-N-[(S)-(3-amino-2-hydroxypropanoyl)]-5,4″-diepidibekacin]",≤ 8,≤ 4,≤ 4
"NCC[C@H](O)C(=O)NC1C[C@H](N)C(O[C@H]2OC(CN)C=CC2N)C(F)[C@H]1O[C@H]1OC(CO)[C@H](O)C(N)C1O (stereo partly drawn) [Example 52, 5-Deoxy-3′,4′-didehydro-4″-epi-5-epifluoroarbekacin]",≤ 8,≤ 4,≤ 4
"NCC[C@H](O)C(=O)N[C@@H]1C[C@H](N)[C@@H](O[C@H]2O[C@H](CN)CC[C@H]2N)[C@H](O)[C@H]1O[C@H]1O[C@H](CO)[C@@H](O)[C@H](N)[C@H]1O [arbekacin, (S)-1-N-(4-amino-2-hydroxybutyroyl)dibekacin, reference compound]",64,–,16
"NCCNC1C(O[C@H]2OC(CN)CCC2N)[C@@H](N)CC(NC(=O)[C@@H](O)CCN)[C@@H]1O[C@H]1OC(CO)[C@@H](O)C(N)C1O (stereo partly drawn) [Example 24, 5-Deoxy-5-epi(2-aminoethyl)aminoarbekacin]",≤ 8,≤ 4,≤ 4
"NCC[C@H](O)C(=O)NC1C[C@H](N)C(O[C@H]2OC(CN)C=CC2N)C(N)[C@H]1O[C@H]1OC(CO)[C@H](O)C(N)C1O (stereo partly drawn) [Example 53, 5-Deoxy-3′,4′-didehydro-4″-epi-5-epiaminoarbekacin]",≤ 8,≤ 4,≤ 4

# More lines, now with the values ahead:
MIC (MRSA-HR) [µg/mL],MIC (P. aeruginosa PAO1) [µg/mL],MIC (MRSA-LR) [µg/mL],Structure (SMILES)
≤ 8,≤ 4,≤ 4,"NCC[C@H](O)C(=O)NC1C[C@H](N)C(O[C@H]2OC(CN)C=CC2N)C(F)[C@H]1O[C@H]1OC(CO)[C@@H](O)C(N)C1O (some centres unmarked) [Example 45, 5-Deoxy-3′,4′-didehydro-5-epifluoroarbekacin]"
≤ 8,≤ 4,≤ 4,"NCC[C@H](O)C(=O)NC1C[C@H](N)C(O[C@H]2OC(CN)C=CC2N)C(O)[C@H]1O[C@H]1OC(CO)[C@H](O)C(N)C1O (some centres unmarked) [Example 51, 3′,4′-Didehydro-5,4″-diepiarbekacin]"
≤ 8,≤ 4,≤ 4,"NCC[C@H](O)C(=O)NC1C[C@H](N)C(O[C@H]2OC(CN)C=CC2N)C(O)[C@H]1O[C@H]1OC(CO)[C@@H](O)C(N)C1O (some centres unmarked) [Example 44, 3′,4′-didehydro-5-epiarbekacin]"
≤ 8,≤ 4,≤ 4,"NCC[C@H](O)C(=O)NC1C[C@H](N)C(O[C@H]2OC(CN)C=CC2N)C(N)[C@H]1O[C@H]1OC(CO)[C@@H](O)C(N)C1O (some centres unmarked) [Example 48, 5-Deoxy-3′,4′-didehydro-5-epiaminoarbekacin]"
≤ 8,≤ 4,≤ 4,"NCC[C@H](O)C(=O)NC1C[C@H](N)C(O[C@H]2OC(CN)CCC2N)C(O)[C@H]1O[C@H]1OC(C(O)CN)[C@@H](O)C(N)C1O (some centres unmarked) [Example 76, 6″-Aminomethylarbekacin]"
≤ 8,≤ 4,≤ 4,"NCC[C@H](O)C(=O)NC1C[C@H](N)C(O[C@H]2OC(CN)CCC2N)C(O)[C@H]1O[C@H]1OC(CO)[C@@H](O)C(N)C1O (some centres unmarked) [Example 13, 5-Epiarbekacin]"
≤ 8,≤ 4,≤ 4,"NCC[C@H](O)C(=O)NC1C[C@H](N)C(O[C@H]2OC(CN)CCC2N)C(O)[C@H]1O[C@H]1OC(CO)[C@H](O)C(N)C1O (some centres unmarked) [Example 1, 5,4″-diepiarbekacin]"
≤ 8,≤ 4,≤ 4,"NCC[C@H](O)C(=O)NC1C[C@H](N)C(O[C@H]2OC(CN)CCC2N)C(N)[C@H]1O[C@H]1OC(CO)[C@@H](O)C(N)C1O (some centres unmarked) [Example 18, 5-Deoxy-5-epiaminoarbekacin]"
≤ 8,≤ 4,≤ 4,"NCC[C@H](O)C(=O)NC1C[C@H](N)C(O[C@H]2OC(CN)C=CC2N)C(O)[C@H]1O[C@H]1OC(CO)CC(N)C1O (some centres unmarked) [Example 54, 4″-Deoxy-3′,4′-didehydro-5-epiarbekacin]"

# Reference: US20070161581A1, “Novel aminoglycoside antibiotics effective against methicillin resistant staphylococcus auerus (mrsas)” (priority 2004, published 2007)
